By Ki is commonly meant a dissociation constant, usually derived from enzyme kinetics or from competition with a known ligand. The term IC50 denotes the concentration needed to halve the response being measured. Low readings indicate inhibition by little substance, high ones a need for much substance.

SMILES strings stand for the structures.

The target of assay [1] is T1, Histamine H1 receptor (Cavia porcellus, UniProt P31389). Briefly: (§1) Potency against histamine H1 receptor on guinea pig ileum. The format is tissue-based. The settings on record: read-out: pA2 (converted).
Assay [2] concerns the target T1, Histamine H1 receptor. Kind of assay: Inhibition of [3H]mepyramine binding with histamine H1 receptor in guinea pig cerebellum membranes after 30 min. Format: cell membranes, Membrane.
Assay [3] deals with T1, Histamine H1 receptor. Briefly: Inhibition of [3H]mepyramine binding with histamine H1 receptor in guinea pig cerebellum membranes. The format is cell membranes, Membrane.
The target in assay [4] is Histamine H1 receptor (Cavia porcellus) (UniProt P31389). The assay is described as §1. The format is tissue-based.
The target of assay [5] is T1, Histamine H1 receptor. The assay is described as §1.

T1 sequence (P31389 whole entry): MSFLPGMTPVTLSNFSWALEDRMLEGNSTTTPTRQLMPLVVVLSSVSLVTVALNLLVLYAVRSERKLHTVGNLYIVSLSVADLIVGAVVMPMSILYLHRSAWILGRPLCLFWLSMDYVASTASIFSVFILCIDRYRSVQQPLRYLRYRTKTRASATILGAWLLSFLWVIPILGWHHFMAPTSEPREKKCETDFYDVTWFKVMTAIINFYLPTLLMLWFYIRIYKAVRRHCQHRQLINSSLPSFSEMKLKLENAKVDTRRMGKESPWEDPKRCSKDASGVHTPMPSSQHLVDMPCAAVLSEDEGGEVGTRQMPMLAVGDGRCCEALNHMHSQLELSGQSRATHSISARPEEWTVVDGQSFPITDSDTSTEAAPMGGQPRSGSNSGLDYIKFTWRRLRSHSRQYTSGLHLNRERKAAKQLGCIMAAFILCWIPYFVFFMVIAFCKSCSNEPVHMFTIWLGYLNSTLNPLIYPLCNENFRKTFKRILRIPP
Histamine H1 receptor (Cavia porcellus), sequence (P31389 whole entry): as above

`Cc1ccc([C@H](OCCN(C)C)c2ccccc2)cc1`: the Kb at Histamine H1 receptor [1] is 2 nM. Moreover, the Ki on Histamine H1 receptor [2] was 12.3 nM.

Turning to `Cc1ccc([C@@H](OCCN(C)C)c2ccccc2)cc1`, the Kb at Histamine H1 receptor [1] was 158 nM. Moreover, the Ki on Histamine H1 receptor [3] was 12.3 nM.

Take `c1ccc2c(c1)Sc1ccccc1N2C1CN2CCC1CC2` (configuration not stated): the pED50 in assay [4] came to 7.3.

Take `c1ccc2c(c1)Sc1ccccc1N2CC1CN2CCC1CC2` (configuration not stated): the pED50 in assay [4] is 7.2.

In turn, `NC1=NCC2c3ccccc3Cc3ccccc3N12` (configuration not stated) [EPINASTINE] gave a Ki at Histamine H1 receptor [2] of 1.41 nM. This compound also had an IC50 against Histamine H1 receptor [5] of 1.58 nM.

As to `CN1CCC2=C(C1)C(c1ccccc1)c1ccccc12` (configuration not stated) [PHENINDAMINE], the Kb at Histamine H1 receptor [1] was 1.58 nM. This compound had a Ki on Histamine H1 receptor [2] of 6.31 nM.

For the compound `Cc1ccc(/C(=C\CN2CCCC2)c2ccccn2)cc1` [TRIPROLIDINE], on Histamine H1 receptor [1], the Kb is 0.126 nM. The Ki on Histamine H1 receptor [2] was 1.66 nM.
